# Experimental data from ChEMBL document CHEMBL5518183, “Broad-spectrum antiviral strategy: Host-targeting antivirals against emerging and re-emerging viruses” (Eur J Med Chem, 2024).
# Where a name gives a salt, the structure may show the parent alone.
# Tests used:
# [1] = system: SARS-CoV-2; assay: Antiviral activity against SARS-CoV-2 infected in African green monkey Vero E6 cells assessed as reduction in viral replication incubated for 24 hrs by Immunofluorescence assay; assay type: functional, organism-based; settings: Severe acute respiratory syndrome coronavirus 2, Vero C1008, 24 h
# [2] = system: Ebolavirus; assay: Antiviral activity against Ebola virus infected in African green monkey Vero cells incubated for 3 days by immunofocus assay; assay type: functional, organism-based; settings: Orthoebolavirus, 72 h
# [3] = Cytotoxicity against African green monkey Vero cells assessed as reduction in cell viability measured after 72 hrs by MTT assay; assay type: toxicity, cell-based; settings: chlorocebus sabaeus
# [4] = system: Monkeypox virus; assay: Antiviral activity against Monkeypox virus V79-1-005 infected in Vero cells assessed as reduction in viral replication measured after 4 days by colorimetric assay; assay type: functional, organism-based; settings: V79-1-005, Vero, 96 h
# [5] = molecular target: Virion infectivity factor (Human immunodeficiency virus type 1 group M subtype B (isolate NY5)(HIV-1), UniProt P12504); assay: Inhibition of HIV1 Vif; set-up: species or system Human immunodeficiency virus 1
# Chain of Virion infectivity factor (P12504 1-150 limits assumed): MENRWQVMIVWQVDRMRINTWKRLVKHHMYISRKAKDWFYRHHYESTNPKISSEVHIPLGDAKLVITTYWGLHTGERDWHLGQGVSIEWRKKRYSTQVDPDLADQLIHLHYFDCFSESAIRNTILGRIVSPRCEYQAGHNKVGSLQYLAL
# Chain of Virion infectivity factor (P12504 151-192 limits assumed): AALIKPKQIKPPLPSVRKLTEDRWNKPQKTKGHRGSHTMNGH
# [6] = system: Human coronavirus 229E; assay: Antiviral activity against HCoV-229E infected in human MRC5 cells incubated for 3 days measured by crystal violet staining based plaque counting analysis; assay type: functional, organism-based; settings: MRC5, 72 h
# [7] = system: Middle East respiratory syndrome-related coronavirus; assay: Antiviral activity against MERS-CoV infected in human MRC5 cells assessed as reduction in viral replication measured after 48 hrs by qRT-PCR assay; assay type: functional, organism-based; settings: MRC5, 48 h
# [8] = system: SARS-CoV-2; assay: Antiviral activity against SARS-CoV-2 infected in African green monkey Vero cells assessed as reduction in viral replication incubated for 24 hrs by Immunofluorescence assay; assay type: functional, organism-based; settings: Severe acute respiratory syndrome coronavirus 2, Vero
# [9] = system: SARS-CoV-2; assay: Antiviral activity against SARS-CoV-2 infected in […] Vero cells assessed as reduction in viral replication incubated for 24 hrs by Immunofluorescence assay; assay type: functional, organism-based; settings: Severe acute respiratory syndrome coronavirus 2, Vero
# [10] = system: Middle East respiratory syndrome-related coronavirus; assay: Antiviral activity against MERS-CoV infected in human Calu-3 cells assessed as inhibition of viral growth; assay type: functional, organism-based
# [11] = system: SARS-CoV-2; assay: Antiviral activity against SARS-CoV-2 infected in African green monkey Vero E6 cells assessed as inhibition of virus growth; assay type: functional, organism-based; settings: Severe acute respiratory syndrome coronavirus 2, Vero C1008
# [12] = system: Chikungunya virus; assay: Antiviral activity against CHIKV infected in Vero 76 cells assessed as reduction in cytopathic effect; assay type: functional, organism-based
# [13] = system: Human immunodeficiency virus 1; assay: Antiviral activity against HIV1 infected in H9 cells assessed as reduction in viral replication; assay type: functional, organism-based; settings: Human immunodeficiency virus 1, H9
# [14] = system: Influenza A virus; assay: Antiviral activity against influenza A virus H1N1 infected in MDCK cells assessed as reduction in virus induced cytopathic effect by CPE assay; assay type: functional, organism-based
# [15] = system: Influenza B virus; assay: Antiviral activity against Influenza B virus assessed as inhibition of virus-induced cytopathic effect; assay type: functional, organism-based
# [16] = system: SARS-CoV-2; assay: Antiviral activity against SARS-CoV-2 infected in BALB/c mouse assessed as survival rate at 10 uM measured after 3 to 5 days; assay type: functional, Severe acute respiratory syndrome coronavirus 2; settings: time 3-5 day
# [17] = system: SARS-CoV-2; assay: Antiviral activity against SARS-CoV-2 B.1.1.7 infected in human Calu-3 cells assessed as inhibition of viral infection measured after 48 hrs by Hoechst 33342 staining based analysis; assay type: functional, organism-based; settings: Severe acute respiratory syndrome coronavirus 2, B.1.1.7, Calu-3, 48 h
# [18] = system: SARS-CoV-2; assay: Antiviral activity against SARS-CoV-2 […] B.1.351 Beta infected in human Calu-3 cells assessed as reduction of viral growth measured after 48 hrs by luciferase assay; assay type: functional, organism-based; settings: Severe acute respiratory syndrome coronavirus 2
compound,measurement,setting,value
COc1cc2c(c(OC)n1)[C@]1(O)[C@H](O)[C@H](CN(C)C)[C@@H](c3ccccc3)[C@]1(c1ccc(C#N)cc1)O2 [ZOTATIFIN],EC50,[1],37 nM
CCCCCN(CC)c1ccc(Oc2ccc(-c3c(C)c(=O)c4c(F)cccc4n3C)cc2F)cc1,IC50,[2],7 nM
same,CC50 at 72 h,[3],10700 nM
CC[C@H](CC#N)OC(=O)N[C@@H](C)c1cccc(NC(=O)Nc2ccc(-c3cnco3)c(OC)c2)c1 [AVN-944],EC50,[4],34.5 nM
CCOC(=O)c1cc(C(=O)c2ccc3ccccc3c2)n2ccc(C(=O)c3ccncc3)cc12,IC50,[5],11000 nM
COC(=O)[C@H]1[C@@H](O)[C@@]2(O)c3c(OC)cc(O[C@@H]4O[C@@H]([C@H](O)CO)CO[C@H]4OC)cc3O[C@@]2(c2ccc(OC)cc2)[C@@H]1c1ccccc1 [SILVESTROL],EC50,[6],3 nM
same,EC50,[7],1.3 nM
CC[C@H](C)[C@H]1NC(=O)[C@@H](NC(=O)[C@@H](CC(C)C)N(C)C(=O)[C@@H]2CCCN2C(=O)C(C)=O)[C@@H](C)OC(=O)[C@H](Cc2ccc(OC)cc2)N(C)C(=O)[C@@H]2CCCN2C(=O)[C@H](CC(C)C)NC(=O)[C@@H](C)C(=O)[C@H](C(C)C)OC(=O)C[C@@H]1O [PLITIDEPSIN],EC50,[8],0.7 nM
N=C(N)Nc1ccc(C(=O)Oc2ccc3cc(C(=N)N)ccc3c2)cc1 [NAFAMOSTAT MESYLATE],EC50,[9],5 nM
same,EC50,[10],5.9 nM
same,EC50,[11],1.4 nM
CONC(=O)[C@H]1[C@@H](O)[C@@]2(O)c3c(OC)cc(OC)cc3O[C@@]2(c2ccc(OC)cc2)[C@@H]1c1ccccc1,EC50,[1],1.82 nM
COc1cc2c(cc1C(=O)Nc1ccc(C(C)(C)C#N)cc1)CCCCC2,EC50,[12],270 nM
COc1ccccc1NC(=O)c1ccccc1Sc1ccc([N+](=O)[O-])cc1,EC50,[13],6000 nM
O=C(Nc1cccnc1)c1cccs1,EC50,[14],2300 nM
same,EC50,[15],2300 nM
CN(C)C(=O)COC(=O)Cc1ccc(OC(=O)c2ccc(NC(=N)N)cc2)cc1.CS(=O)(=O)O [CAMOSTAT MESILATE],Activity,[16],60%
CS(=O)(=O)N[C@@H](CCC(N)=O)C(=O)N[C@@H](Cc1ccccc1)C(=O)N[C@@H](CCCNC(=N)N)C(=O)c1nc2ccccc2s1,IC50,[17],1.9 nM
same,IC50,[18],1.9 nM
